# What was measured:
# [1] = test system: MGC 803 (human gastric cancer cell); test: Solid tumor cell growth inhibition, MTT, 72 h (Example 7); type: cell-based; details: Homo sapiens
# Protocol: (§1) Human solid tumor cell lines: Hep-2 (laryngeal carcinoma), A549 (human lung cancer), CaES-17 (esophageal cancer cell), PC-3 (prostate cancer), CNE (nasopharyngeal carcinoma cell) and SK-OV-3 (ovarian cancer cell), all of which are purchased from China Center For Type Culture Collection; RKO (human colon adenocarcinoma cell), MGC 803 (human gastric cancer cell), MG63 (osteosarcoma), and U87 MG (malignant glioma cell), all of which are purchased from Fuxiang Bio-tech Co. Ltd., Shanghai, China; PANC-1 (pancreatic cancer), Huh? (human liver cancer cell), Becap37 (human breast cancer cell), and Hela (human cervical cancer cell), all of which are donated by Cancer Research Institute of Zhejiang University, China.
# (§2) Reagents: the same as in Example 5.
# (§3) Obtaining 4000 well-growing human solid tumor cells and inoculating them into wells of a 96-well cell culture plate. The culture medium is DMEM High Glucose cell culture medium containing 10% fetal bovine serum. The plate is placed in a carbon dioxide cell incubator (5% CO2) at 37° C. and incubated for 24 hours. After been added with tetrandrine derivatives of different concentration and mixing uniformly, the plate is placed in a carbon dioxide cell incubator (5% CO2) at 37° C. and incubated for 72 hours. Then the viable cell concentration is determined by the MTT method and the cell viability (%) after drug treatment is calculated. In this experiment, the cell viability of control group (not treated with any compound) is set as 100%.
# [2] = test system: Becap37 (human breast cancer cell); test: as above; type: cell-based; details: Homo sapiens; 72 h, MTT, Becap-37
# Protocol: as §1, §2, §3
# A549 (human lung cancer) = test: as above; type: cell-based; details: Homo sapiens; 72 h, MTT, A549
# Protocol: as §1, §2, §3
# [3] = test system: Huh7 (human liver cancer cell); test: as above; type: cell-based; details: Homo sapiens; 72 h, MTT, Huh-7
# Protocol: as §1, §2, §3
# [4] = test system: RPMI8226 (multiple myeloma); test: Multiple myeloma cell growth inhibition, MTT, 72 h (Example 6); type: cell-based, human; details: Homo sapiens, RPMI-8226; 72 h, MTT, RPMI8226
# Protocol: Multiple myeloma and lymphoma cell lines: RPMI8226 (multiple myeloma), purchased from Fuxiang Bio-tech Co. Ltd., Shanghai, China.
# as §2
# (§4) Obtaining 6000 well-growing leukemia cells and inoculating them into wells of a 96-well cell culture plate. The culture medium is a 1640 cell culture medium containing 10% fetal bovine serum. After adding the tetrandrine derivatives of different concentrations and mixing uniformly, placing the plate in a carbon dioxide cell incubator (5% CO2) at 37° C. and incubated for 72 hours. Then the viable cell concentration is determined by the MTT method.
# [5] = test system: H9 (acute lymphoblastic leukemia, ALL); test: Leukemia cell growth inhibition, MTT, 72 h (Example 5); type: cell-based, human; details: Homo sapiens; 72 h, MTT
# Excerpt: (§5) Leukemia cell lines: leukemia cell lines: K562/adr (drug-resistant, chronic myeloid leukemia, CML), NB4 (acute promyelocytic leukemia, AML), Kasumi-1 (acute myeloid leukemia M2 type, AML-M2), Jurkat (acute lymphoblastic leukemia, ALL), all of which are donated by Cancer Research Institute of Zhejiang University, China; and H9 (acute lymphoblastic leukemia, ALL), which is purchased from China Center for Type Culture Collection.
# (§6) Reagents: The standard sample of tetrandrine (TTD) is purchased from Ci Yuan Biotechnology Co., Ltd., Shaanxi, China; and the 5-substituted tetrandrine derivatives of the present invention.
# as §4, with “incubating” for “incubated”
# [6] = test system: K562/adr (drug-resistant, chronic myeloid leukemia, CML); test: as above; type: cell-based, human; details: Homo sapiens, K562/Adr; 72 h, MTT
# Excerpt: as §5, §6
# as §4, with “incubating” for “incubated”
# [7] = test system: Kasumi-1 (acute myeloid leukemia M2 type, AML-M2); test: as above; type: cell-based, human; details: Homo sapiens, Kasumi 1
# Excerpt: as §5, §6
# as §4, with “incubating” for “incubated”
# [8] = test system: Jurkat (acute lymphoblastic leukemia, ALL); test: as above; type: cell-based, human; details: Homo sapiens, Jurkat; 72 h, MTT
# Excerpt: as §5, §6
# as §4, with “incubating” for “incubated”
# PC-3 (prostate cancer) = test: Solid tumor cell growth inhibition, MTT, 72 h (Example 7); type: cell-based, human; details: Homo sapiens; 72 h, MTT, PC-3
# Protocol: as §1, §2, §3
# MG63 (osteosarcoma) = test: as above; type: cell-based, human; details: Homo sapiens; 72 h, MTT, MG-63
# Protocol: as §1, §2, §3
# [9] = test system: CaES-17 (esophageal cancer cell); test: as above; type: cell-based, human; details: Homo sapiens, CaEs17; 72 h, MTT, CAES-17
# Protocol: as §1, §2, §3
# [10] = test system: PANC-1 (pancreatic cancer); test: as above; type: cell-based, human; details: Homo sapiens; 72 h, MTT, PANC-1
# Protocol: as §1, §2, §3
IC50 [1] [µg/mL],IC90 [1] [µg/mL],IC50 [2] [µg/mL],IC90 [2] [µg/mL],IC50 (A549 (human lung cancer)) [µg/mL],IC90 (A549 (human lung cancer)) [µg/mL],IC50 [3] [µg/mL],IC90 [3] [µg/mL],IC50 [4] [µg/mL],IC90 [4] [µg/mL],IC50 [5] [µg/mL],IC90 [5] [µg/mL],IC50 [6] [µg/mL],IC90 [6] [µg/mL],IC50 [7] [µg/mL],IC90 [7] [µg/mL],IC50 (MG63 (osteosarcoma)) [µg/mL],IC90 (MG63 (osteosarcoma)) [µg/mL],IC50 [10] [µg/mL],IC90 [10] [µg/mL],SMILES,other results
5.17,8.33,1.8,4.31,4.05,11,2.93,5.07,0.29,2.76,2.31,4.4,0.98,5.59,2.11,8.17,1.08,2.49,4.63,10,COCCCOCc1c2c3c(c(OC)c1OC)Oc1cc4c(cc1OC)CCN(C)[C@H]4Cc1ccc(cc1)Oc1cc(ccc1OC)C[C@@H]3N(C)CC2 [BS-TE-416],IC50 [8]: 3.45 µg/mL; IC90 [8]: 11.7 µg/mL; IC50 (PC-3 (prostate cancer)): 4.19 µg/mL; IC90 (PC-3 (prostate cancer)): 9.49 µg/mL; IC50 [9]: 2.3 µg/mL; IC90 [9]: 16.6 µg/mL
5.16,7.5,4.22,6.88,5.61,9.75,2.54,6.16,0.28,2.09,4.64,7.26,1.42,5.71,3.62,11.8,3.07,9.69,5.99,9.31,CCOCc1c2c3c(c(OC)c1OC)Oc1cc4c(cc1OC)CCN(C)[C@H]4Cc1ccc(cc1)Oc1cc(ccc1OC)C[C@@H]3N(C)CC2 [BS-TE-419],IC50 [8]: 4.18 µg/mL; IC90 [8]: 10.3 µg/mL; IC50 (PC-3 (prostate cancer)): 6.67 µg/mL; IC90 (PC-3 (prostate cancer)): 10.5 µg/mL; IC50 [9]: 4.98 µg/mL; IC90 [9]: 18.4 µg/mL
3.44,4.8,3.5,4.86,3.4,8,1.52,3.27,0.19,1.28,–,–,0.9,7.91,3.02,7.51,1.08,4.46,3.76,6.73,COc1ccc2cc1Oc1ccc(cc1)C[C@H]1c3cc(c(OC)cc3CCN1C)Oc1c(OC)c(OC)c(CSc3ccccc3)c3c1[C@H](C2)N(C)CC3 [BS-TE-421],–
1.06,1.9,1.9,3.31,2.44,5.61,1.09,1.91,0.14,0.89,1.71,2.5,0.57,2.06,1.95,6.41,1.31,4.75,2.76,4.9,COc1ccc2cc1Oc1ccc(cc1)C[C@H]1c3cc(c(OC)cc3CCN1C)Oc1c(OC)c(OC)c(COCc3ccsc3)c3c1[C@H](C2)N(C)CC3 [BS-TE-415],IC50 [8]: 2.22 µg/mL; IC90 [8]: 5.71 µg/mL; IC50 (PC-3 (prostate cancer)): 3.5 µg/mL; IC90 (PC-3 (prostate cancer)): 5.76 µg/mL; IC50 [9]: 1.74 µg/mL; IC90 [9]: 5.98 µg/mL
